Measurements reported in the SangsterLogP compilation.

test: not given

logP	SMILES
3.27	OC1(Cn2cncn2)CCCC1Cc1ccc(Cl)cc1F (stereo not given)
1.7	N#Cc1ccc(CC2CCCC2(O)Cn2cncn2)cc1 (stereo not given)
2.98	OC1(Cn2cncn2)CCCC1Cc1cccc(Cl)c1 (stereo not given)
3.11	OC1(Cn2cncn2)CCCC1Cc1ccc(Cl)cc1 (stereo not given)
2.51	OC1(Cn2cncn2)CCCC1Cc1ccc(F)c(F)c1 (stereo not given)
3.07	OC1(Cn2cncn2)CCCC1Cc1ccc(C(F)(F)F)cc1 (stereo not given)
2.6	OC1(Cn2cncn2)CCCC1Cc1c(F)cccc1F (stereo not given)

More lines, now with the values behind:

SMILES	logP
OC1(Cn2cncn2)CCCC1Cc1cccc(C(F)(F)F)c1 (stereo not given)	3.07
OC1(Cn2cncn2)CCCC1Cc1c(F)c(F)c(F)c(F)c1F (stereo not given)	3.16
OC1(Cn2cncn2)CCCC1Cc1ccccc1Cl (stereo not given)	2.95
OC1(Cn2cncn2)CCCC1Cc1ccc(Cl)cc1Cl (stereo not given)	3.87
OC1(Cn2cncn2)CCCC1Cc1ccc(F)cc1 (stereo not given)	2.39
OC1(Cn2cncn2)CCCC1Cc1ccc(F)cc1F (stereo not given)	2.6

test: method code SF, from DOI: 10.1021/bk-1995-0606.ch013

logP	SMILES
3.92	OC1(Cn2cncn2)CCCC1Cc1ccc(-c2ccccc2)cc1 (stereo not given)
2.71	Cc1ccc(CC2CCCC2(O)Cn2cncn2)cc1 (stereo not given)
3.3	CCC1CCC(Cc2ccc(F)cc2)C1(O)Cn1cncn1 (stereo not given)
3.97	CC(C)(C)c1ccc(CC2CCCC2(O)Cn2cncn2)cc1 (stereo not given)
3.43	Cc1ccc(CC2CCC(C)(C)C2(O)Cn2cncn2)cc1 (stereo not given)
4.83	CCC1CCC(Cc2ccc(-c3ccccc3)cc2)C1(O)Cn1cncn1 (stereo not given)
4.18	CCC1CCC(Cc2ccc(Br)cc2)C1(O)Cn1cncn1 (stereo not given)
3.99	CC1(C)CCC(Cc2ccc(Br)cc2)C1(O)Cn1cncn1 (stereo not given)
4.02	CCC1CCC(Cc2ccc(Cl)cc2)C1(O)Cn1cncn1 (stereo not given)

Second part, the molecule before the results:

SMILES	logP
CC1(C)CCC(Cc2ccc(Cl)c(O)c2)C1(O)Cn1cncn1 (stereo not given)	3.16
OC1(Cn2cncn2)CCCC1Cc1ccc(Br)cc1 (stereo not given)	3.27
CCCOC/C(=N\c1ccc(Cl)cc1C(F)(F)F)n1ccnc1	4.5
CCC1CCC(Cc2ccc(Cl)cc2Cl)C1(O)Cn1cncn1 (stereo not given)	4.78
CC1(C)CCC(Cc2ccc(-c3ccccc3)cc2)C1(O)Cn1cncn1 (stereo not given)	4.64
OC1(Cn2cncn2)CCCC1Cc1ccccc1 (stereo not given)	2.26
CCC1CCC(Cc2ccc(C(C)(C)C)cc2)C1(O)Cn1cncn1 (stereo not given)	4.88
CC1(C)CCC(Cc2ccc(Cl)cc2F)C1(O)Cn1cncn1 (stereo not given)	3.99
